# Measurements reported in US12697326B2, “Methods of treating hepatic encephalopathy” (SALIX PHARMACEUTICALS, INC., priority 2008, dated 2026).
# Columns and labels:
# [1] = test system: HE-related hospitalization in subjects with hepatic encephalopathy (HE); assay: Time to first HE-related hospitalization, first study; assay type: in vivo, human; details: for Cummulative number of events / Number of events / Probability of no HE-related hospitalization: ITT
# Description: Time to first HE-related hospitalization was computed as the number of days from the first dose of rifaximin to the first hospitalization for an HE related event. The analysis of time to first HE-related hospitalization was based on the comparison of time to hospitalization between rifaximin and placebo.
# FIG. 9 illustrates time to first HE-related hospitalization (e.g., hospitalization directly resulting from HE or hospitalization caused by HE) by treatment group in the ITT population in the first study. Table 19 presents estimates of the proportions of subjects who had their first HE-related hospitalization over the course of the Treatment Period and results of statistical analyses. Subjects who discontinued prior to hospitalization due to HE and prior to completion of the 6-month treatment period were censored at the time of discontinuation. […] This hazard ratio represents a 50% reduction, when compared with placebo, in the risk of hospitalization due to HE during the 6-month treatment period.
# Note for FIG. 9, the survival distribution estimate on y-axis represents the proportion of subjects without HE-related hospitalization. Dashed line represents rifaximin group and solid line represents placebo group. Open circles and open triangles represent censored subjects. Subjects who discontinued prior to hospitalization due to HE and prior to completion of the 6-month treatment period were censored at the time of discontinuation. Hepatic encephalopathy-related hospitalization was recorded on the HE-related hospitalization CRF.
# [2] = test system: breakthrough overt HE episode in subjects with HE; assay: Breakthrough overt HE episodes, second study (open-label treatment extension); assay type: in vivo, human
# Description: Unlike the first study, subjects were not required to withdraw from the study after experiencing a breakthrough overt HE episode.
# Conn scores and asterixis grades were assessed during the course of the study.
# Therefore, the incidence of breakthrough overt HE over time during rifaximin therapy was evaluated. Table 24 presents breakthrough overt HE episodes by total number of HE episodes during the course of the study.
# [3] = human, in vivo
# [4] = first HE-related hospitalization, Table 4, 550 mg BID, N = 140, Days >=168
# [5] = first HE-related hospitalization, Table 4; 550 mg BID; N = 140; Days [0-28)
# [6] = first HE-related hospitalization, Table 4, 550 mg BID, N = 140, Days [28-56]
# [7] = first HE-related hospitalization, Table 4; 550 mg BID; N = 140; Days [56-84)
# [8] = first HE-related hospitalization, Table 4; 550 mg BID; N = 140; Days [84-140)
# [9] = first HE-related hospitalization, Table 4; 550 mg BID; N = 140; Days [140-168)
# [10] = first HE-related hospitalization, Table 17, 550 mg BID, N = 140, Days >=168
# [11] = first HE-related hospitalization, Table 17; 550 mg BID; N = 140; Days [0-28)
# [12] = first HE-related hospitalization, Table 17; 550 mg BID; N = 140; Days [28-56)
# [13] = first HE-related hospitalization, Table 17; 550 mg BID; N = 140; Days [56-84)
# [14] = first HE-related hospitalization, Table 17; 550 mg BID; N = 140; Days [84-140)
# [15] = first HE-related hospitalization, Table 17; 550 mg BID; N = 140; Days [140-168)
# [16] = first study, first HE-related hospitalization, N = 140, treatment interval 0 to <28 days
# [17] = first study, first HE-related hospitalization, N = 140, treatment interval 28 to <56 days
# [18] = first study, first HE-related hospitalization, N = 140, treatment interval 56 to <84 days
# [19] = first study, first HE-related hospitalization, N = 140, treatment interval 84 to <140 days
# [20] = first study, first HE-related hospitalization, N = 140, treatment interval 140 to <168 days
# [21] = first study, first HE-related hospitalization, N = 140, treatment interval ≥168 days
# [22] = Continuing Rifaximin N = 70, second study
# [23] = New Rifaximin N = 196, second study
# [24] = Rifaximin N = 266 (all rifaximin), second study
# [25] = first study placebo subjects crossed over to rifaximin in second study
# [26] = second study, all rifaximin, up to 680 days
# [27] = second study, continuing rifaximin group, up to 680 days
# [28] = second study, new rifaximin group, up to 680 days
smiles,measurement,setting,value
CO[C@H]1/C=C/O[C@@]2(C)Oc3c(C)c(O)c4c(O)c(c5c(nc6cc(C)ccn65)c4c3C2=O)NC(=O)/C(C)=C\C=C\[C@H](C)[C@H](O)[C@@H](C)[C@@H](O)[C@@H](C)[C@H](OC(C)=O)[C@@H]1C [Rifaximin],Cumulative Occurrences of Events,[1]; [4],23
same,Occurrences of Events,[1]; [4],0
same,Survival,[1]; [4],0.8108
same,Cumulative Occurrences of Events,[1]; [5],6
same,Occurrences of Events,[1]; [5],6
same,Survival,[1]; [5],1.0000
same,Cumulative Occurrences of Events,[1]; [6],10
same,Occurrences of Events,[1]; [6],4
same,Survival,[1]; [6],0.9564
same,Cumulative Occurrences of Events,[1]; [7],15
same,Occurrences of Events,[1]; [7],5
same,Survival,[1]; [7],0.9258
same,Cumulative Occurrences of Events,[1]; [8],20
same,Survival,[1]; [8],0.8848
same,Cumulative Occurrences of Events,[1]; [9],23
same,Occurrences of Events,[1]; [9],3
same,Survival,[1]; [9],0.8403
same,Cumulative Occurrences of Events,[1]; [10],19
same,Occurrences of Events,[1]; [10],0
same,Survival,[1]; [10],0.8475
same,Cumulative Occurrences of Events,[1]; [11],4
same,Occurrences of Events,[1]; [11],4
same,Survival,[1]; [11],1.0000
same,Cumulative Occurrences of Events,[1]; [12],8
same,Occurrences of Events,[1]; [12],4
same,Survival,[1]; [12],0.9711
same,Cumulative Occurrences of Events,[1]; [13],12
same,Occurrences of Events,[1]; [13],4
same,Survival,[1]; [13],0.9411
same,Cumulative Occurrences of Events,[1]; [14],17
same,Occurrences of Events,[1]; [14],5
same,Survival,[1]; [14],0.9094
same,Cumulative Occurrences of Events,[1]; [15],19
same,Occurrences of Events,[1]; [15],2
same,Survival,[1]; [15],0.8665
same,Cummulative number of events,[1]; [16],4
same,Number of events,[1]; [16],4
same,Probability of no HE-related hospitalization,[1]; [16],1.0000
same,Cummulative number of events,[1]; [17],8
same,Number of events,[1]; [17],4
same,Cummulative number of events,[1]; [18],12
same,Number of events,[1]; [18],4
same,Cummulative number of events,[1]; [19],17
same,Number of events,[1]; [19],5
same,Probability of no HE-related hospitalization,[1]; [19],0.9094
same,Cummulative number of events,[1]; [20],19
same,Number of events,[1]; [20],2
same,Cummulative number of events,[1]; [21],19
same,Number of events,[1]; [21],0
same,subjects with HE-related hospitalizations (of 140),"[1]; first study, rifaximin group",19
same,reduction in risk of hospitalization due to HE (HE-related) compared with placebo,"[1]; first study, 6-month treatment period",50%
same,"time to first HE related hospitalization vs placebo (FIG. 3, Kaplan Meier)",[1]; in vivo,increased time to hospitalization
same,"Subjects with total number of HE episodes during the study: 1, %",[2]; [22],(14.3) %
same,"Subjects with total number of HE episodes during the study: 2, %",[2]; [22],(8.6) %
same,"Subjects with total number of HE episodes during the study: 4, %",[2]; [22],(1.4) %
same,"Subjects with total number of HE episodes during the study: 6, %",[2]; [22],(1.4) %
same,"Subjects with ≥1 breakthrough overt HE episode, %",[2]; [22],(25.7) %
same,"Subjects with total number of HE episodes during the study: 1, %",[2]; [23],(17.3) %
same,"Subjects with total number of HE episodes during the study: 2, %",[2]; [23],(6.1) %
same,"Subjects with total number of HE episodes during the study: 3, %",[2]; [23],(2.0) %
same,"Subjects with total number of HE episodes during the study: 4, %",[2]; [23],(0.5) %
same,"Subjects with total number of HE episodes during the study: 5, %",[2]; [23],(0.5) %
same,"Subjects with total number of HE episodes during the study: 10, %",[2]; [23],(1.0) %
same,"Subjects with ≥1 breakthrough overt HE episode, %",[2]; [23],(27.6) %
same,"Subjects with total number of HE episodes during the study: 1, value in parentheses",[2]; [24],(16.5) 90
same,"Subjects with total number of HE episodes during the study: 2, value in parentheses",[2]; [24],(6.8) 90
same,"Subjects with total number of HE episodes during the study: 3, value in parentheses",[2]; [24],(1.5) 90
same,"Subjects with total number of HE episodes during the study: 4, value in parentheses",[2]; [24],(0.8) 90
same,"Subjects with total number of HE episodes during the study: 5, value in parentheses",[2]; [24],(0.4) 90
same,"Subjects with total number of HE episodes during the study: 6, value in parentheses",[2]; [24],(0.4) 90
same,"Subjects with total number of HE episodes during the study: 10, value in parentheses",[2]; [24],(0.8) 90
same,"Subjects with ≥1 breakthrough overt HE episode, value in parentheses",[2]; [24],(27.1) 90
same,reduction in risk of breakthrough overt HE during rifaximin treatment vs prior placebo experience,[2]; [25],70%
same,subjects with breakthrough overt HE during rifaximin treatment (of 82),[2]; [25],15
same,subjects with 3 or more breakthrough HE episodes,[2]; second study,Ten
same,proportion of subjects with breakthrough overt HE,[2]; [26],27.1%
same,subjects with breakthrough overt HE (of 266),[2]; [26],72
same,proportion of subjects with breakthrough overt HE,[2]; [27],25.7%
same,subjects with breakthrough overt HE (of 70),[2]; [27],18
same,proportion of subjects with breakthrough overt HE,[2]; [28],27.6%
same,subjects with breakthrough overt HE (of 196),[2]; [28],54
same,highest anticipated free plasma exposure,[3],0.03 µM
